Measured values from patent US20210047324A1 (Aptinyx Inc., priority 2018, published 2021).
Where “and” joins values, the source holds several entries; their conditions need not be identical. Equal entries are not always repeated. Where two headings read alike, the source gives them in different places.

Experiments:
Plasma stability (Rat) = type: in vitro ADME; conditions: after 60 minutes
Experimental: (§1) Plasma stability of disclosed compounds was investigated. The following table indicates the percent of compound remaining after 60 minutes.

Plasma stability (Human) = type: in vitro ADME; conditions: after 60 minutes
Experimental: as §1

[1] = Oral pharmacokinetics in Sprague Dawley rats (plasma, brain, CSF); type: in vivo; conditions: rat
Experimental: In another experiment, Sprague Dawley rats were dosed per os (oral gavage) using a normal saline formulation containing 10 mg/kg of the compounds identified in the table below. Plasma, brain, and CSF samples were analyzed at various time points over a 24 hour period. The table below summarizes the results of the oral pharmacokinetics, where the first three values (Tmax, Cmax and AUClast) are plasma values.

NMDAR2B = target: T1, NMDAR2B (Homo sapiens, UniProt Q13224); experiment: NMDAR agonist assay, [3H]MK-801 binding, NMDAR2B expressing HEK cell membranes; type: biochemical; conditions: 50 μM glutamate; for EC50: read-out: NMDAR2B B: log EC50 (converted); for Emax / NMDAR2B A: % maximal [3H]MK-801 binding relative to 1 mM glycine: relative to 1 mM glycine; for Emax: read-out: NMDAR2B A: % maximal [3H]MK-801 binding relative to 1 mM glycine
T1 construct: expressed in transfected cells; host or cells: HEK cells (membrane extract)
T1 sequence (Q13224 27-1484, species assumed, other chains not shown): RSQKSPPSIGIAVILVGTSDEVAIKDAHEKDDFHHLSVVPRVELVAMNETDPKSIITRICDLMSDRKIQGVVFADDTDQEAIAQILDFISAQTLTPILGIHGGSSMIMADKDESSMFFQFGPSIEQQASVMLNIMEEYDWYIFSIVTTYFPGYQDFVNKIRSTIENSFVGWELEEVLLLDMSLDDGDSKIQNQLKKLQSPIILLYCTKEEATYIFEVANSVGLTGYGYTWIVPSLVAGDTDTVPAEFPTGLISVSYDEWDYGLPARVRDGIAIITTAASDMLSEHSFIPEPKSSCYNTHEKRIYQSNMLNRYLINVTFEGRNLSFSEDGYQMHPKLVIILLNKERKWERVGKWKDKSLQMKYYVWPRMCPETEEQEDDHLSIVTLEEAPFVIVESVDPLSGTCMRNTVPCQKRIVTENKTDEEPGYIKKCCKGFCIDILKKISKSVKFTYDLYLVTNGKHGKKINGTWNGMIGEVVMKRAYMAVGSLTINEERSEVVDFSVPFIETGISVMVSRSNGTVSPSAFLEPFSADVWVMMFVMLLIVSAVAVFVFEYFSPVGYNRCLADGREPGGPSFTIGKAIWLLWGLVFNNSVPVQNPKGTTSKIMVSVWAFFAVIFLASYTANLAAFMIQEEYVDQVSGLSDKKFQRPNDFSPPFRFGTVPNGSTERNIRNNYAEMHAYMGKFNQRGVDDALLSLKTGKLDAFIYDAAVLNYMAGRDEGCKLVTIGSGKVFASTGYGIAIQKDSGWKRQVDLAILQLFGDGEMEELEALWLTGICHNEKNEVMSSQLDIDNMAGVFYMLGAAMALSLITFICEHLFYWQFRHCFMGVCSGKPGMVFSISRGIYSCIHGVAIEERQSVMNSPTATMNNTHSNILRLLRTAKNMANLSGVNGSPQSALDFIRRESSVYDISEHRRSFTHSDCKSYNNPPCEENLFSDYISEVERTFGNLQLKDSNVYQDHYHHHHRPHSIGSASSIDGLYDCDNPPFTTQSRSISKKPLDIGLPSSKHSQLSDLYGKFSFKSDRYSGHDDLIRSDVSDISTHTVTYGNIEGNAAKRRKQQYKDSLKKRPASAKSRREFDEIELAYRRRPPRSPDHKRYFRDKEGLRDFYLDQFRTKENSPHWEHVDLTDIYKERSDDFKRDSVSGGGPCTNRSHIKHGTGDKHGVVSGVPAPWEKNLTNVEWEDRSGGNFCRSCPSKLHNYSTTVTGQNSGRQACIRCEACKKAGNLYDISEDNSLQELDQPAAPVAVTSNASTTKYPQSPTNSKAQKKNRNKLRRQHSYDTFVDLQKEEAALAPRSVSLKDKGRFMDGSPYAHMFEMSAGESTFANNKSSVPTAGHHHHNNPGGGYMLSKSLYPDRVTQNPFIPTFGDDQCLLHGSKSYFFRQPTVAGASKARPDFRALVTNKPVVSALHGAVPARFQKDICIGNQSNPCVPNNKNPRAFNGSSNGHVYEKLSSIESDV
Experimental: (§2) Assays were conducted as described by Moskal et al., “GLYX-13: a monoclonal antibody-derived peptide that acts as an N-methyl-D-aspartate receptor modulator,” Neuropharmacology, 49, 1077-87, 2005. These studies were designed to determine if the test compounds act to facilitate NMDAR activation in NMDAR2A, NMDAR2B, NMDAR2C or NMDAR2D expressing HEK cell membranes as measured by increases in [^3H]MK-801 binding.
(§3) In the assay, 300 μg of NMDAR expressing HEK cell membrane extract protein was preincubated for 15 minutes at […] in the presence of saturating concentrations of glutamate (50 μM) and varying concentrations of test compound (1×10^−15M-1×10^−7M), or 1 mM glycine. Following the addition of 0.3 μCi of [3H]MK-801 (22.5 Ci/mmol), reactions were again incubated for 15 minutes at 25° C. (nonequilibrium conditions). Bound and free [3H]MK-801 were separated via rapid filtration using a Brandel apparatus.
(§4) In analyzing the data, the DPM (disintegrations per minute) of [3H]MK-801 remaining on the filter were measured for each concentration of test compound or for 1 mM glycine. The DPM values for each concentration of a ligand (N=2) were averaged. The baseline value was determined from the best fit curve of the DPM values modeled using the GraphPad program and the log(agonist) vs. response (three parameters) algorithm was then subtracted from all points in the dataset. The % maximal [^3H]MK-801 binding was then calculated relative to that of 1 mM glycine: all baseline subtracted DPM values were divided by the average value for 1 mM glycine. The EC50 and % maximal activity were then obtained from the best fit curve of the % maximal [3H]MK-801 binding data modelled using the GraphPad program and the log(agonist) vs. response (three parameters) algorithm.
(§5) The tables below summarize the results for the wild type […] NMDAR2A, NMDAR2B, NMDAR2C, and NMDAR2D, and whether the compound is not an agonist (−), is an agonist (+), or is a strong agonist (++), where column A is based on the % maximal [3H]MK-801 binding relative to 1 mM glycine (−=0; <100%=+; and >100%=++); and column B is based on log EC50 values (0=−; ≥1×10^−9 M (e.g., −8)=+; and <1×10^−9 M (e.g., −10)=++).

[2] = Microsomal stability (Rat); type: in vitro ADME; conditions: after 60 minutes
Experimental: (§6) Microsomal stability of disclosed compounds was investigated. The following table indicates the percent of compound remaining after 60 minutes.

[3] = IV pharmacokinetics in Sprague Dawley rats; type: in vivo; conditions: rat, 2 mg/kg, normal saline
Experimental: Sprague Dawley rats were dosed intravenously using a normal saline formulation containing 2 mg/kg of the compounds identified in the below table. The table below summarizes the results of the IV pharmacokinetics.

NMDAR2A = target: T2, NMDAR2A (Homo sapiens, UniProt Q12879); experiment: NMDAR agonist assay, [3H]MK-801 binding, NMDAR2A expressing HEK cell membranes; type: biochemical; parameters: key to NMDAR2A B: log EC50: 0=−; ≥1×10^−9 M (e.g., −8)=+; <1×10^−9 M (e.g., −10)=++; conditions: 50 μM glutamate; for EC50: read-out: NMDAR2A B: log EC50 (converted); for Emax: 0.25 h, read-out: NMDAR2A A: % maximal [3H]MK-801 binding relative to 1 mM glycine; for Emax / NMDAR2A A: % maximal [3H]MK-801 binding relative to 1 mM glycine: relative to 1 mM glycine
T2 construct: expressed in transfected cells; host or cells: HEK cells (membrane extract)
T2 sequence (Q12879 23-1464, species assumed, other chains not shown): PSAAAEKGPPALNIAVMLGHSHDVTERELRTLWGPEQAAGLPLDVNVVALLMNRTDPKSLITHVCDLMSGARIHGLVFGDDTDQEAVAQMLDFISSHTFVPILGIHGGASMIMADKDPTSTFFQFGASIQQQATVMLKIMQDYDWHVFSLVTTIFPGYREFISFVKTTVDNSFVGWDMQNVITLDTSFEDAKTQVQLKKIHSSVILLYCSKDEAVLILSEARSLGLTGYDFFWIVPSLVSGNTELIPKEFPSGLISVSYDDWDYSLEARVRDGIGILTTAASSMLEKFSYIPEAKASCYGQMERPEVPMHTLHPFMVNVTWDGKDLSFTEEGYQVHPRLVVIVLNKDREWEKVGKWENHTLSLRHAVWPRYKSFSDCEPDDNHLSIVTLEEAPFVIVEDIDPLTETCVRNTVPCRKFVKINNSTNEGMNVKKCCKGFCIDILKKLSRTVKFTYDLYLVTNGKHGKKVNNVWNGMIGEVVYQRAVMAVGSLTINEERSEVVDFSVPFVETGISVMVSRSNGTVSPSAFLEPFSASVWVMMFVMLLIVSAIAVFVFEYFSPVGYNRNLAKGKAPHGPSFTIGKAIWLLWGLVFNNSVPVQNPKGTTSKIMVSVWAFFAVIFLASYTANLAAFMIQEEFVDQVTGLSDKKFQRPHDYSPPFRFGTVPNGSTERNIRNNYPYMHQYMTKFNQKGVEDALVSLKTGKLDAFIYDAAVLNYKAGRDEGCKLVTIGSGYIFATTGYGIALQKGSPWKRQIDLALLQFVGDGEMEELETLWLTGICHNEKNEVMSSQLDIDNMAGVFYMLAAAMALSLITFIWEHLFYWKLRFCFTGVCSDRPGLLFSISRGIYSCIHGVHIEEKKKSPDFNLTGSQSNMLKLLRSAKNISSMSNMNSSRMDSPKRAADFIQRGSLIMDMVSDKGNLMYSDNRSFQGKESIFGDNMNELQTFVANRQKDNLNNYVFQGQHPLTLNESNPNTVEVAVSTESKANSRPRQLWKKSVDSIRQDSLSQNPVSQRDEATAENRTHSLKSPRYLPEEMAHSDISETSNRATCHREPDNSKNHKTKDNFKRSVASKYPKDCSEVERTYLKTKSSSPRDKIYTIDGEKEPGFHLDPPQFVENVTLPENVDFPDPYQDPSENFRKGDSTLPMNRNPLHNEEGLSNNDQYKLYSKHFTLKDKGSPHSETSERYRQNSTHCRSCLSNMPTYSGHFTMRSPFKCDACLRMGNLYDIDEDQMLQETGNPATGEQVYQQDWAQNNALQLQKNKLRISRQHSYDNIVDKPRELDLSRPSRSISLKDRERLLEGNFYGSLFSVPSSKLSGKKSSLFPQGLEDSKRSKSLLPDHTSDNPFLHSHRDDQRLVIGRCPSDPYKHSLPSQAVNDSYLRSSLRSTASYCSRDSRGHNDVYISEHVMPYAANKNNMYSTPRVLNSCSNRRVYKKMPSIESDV
Experimental: as §2, §3, §4, §5

[4] = Microsomal stability (Human); type: in vitro ADME; conditions: after 60 minutes
Experimental: as §6

| Structure (SMILES) | Plasma (Rat): percent of compound remaining (Plasma stability (Rat)) | Plasma (Human): percent of compound remaining (Plasma stability (Human)) | EC50 (NMDAR2B) | Emax (NMDAR2B) | Microsomal (Rat): percent of compound remaining [2] | EC50 (NMDAR2A) | Emax (NMDAR2A) | Microsomal (Human): percent of compound remaining [4] | NMDAR2B A: % maximal [3H]MK-801 binding relative to 1 mM glycine (NMDAR2B) | NMDAR2A A: % maximal [3H]MK-801 binding relative to 1 mM glycine (NMDAR2A) | also measured |
| --- | --- | --- | --- | --- | --- | --- | --- | --- | --- | --- | --- |
| O=C1NCCCC12CCCCN2 (single isomer, unassigned) [AX, 1,8-diazaspiro[5.5]undecan-7-one] | 99% | 105% | ≥ 1 nM | < 100% | 120% | < 1 nM | < 100% | 93% |  |  | Tmax ([1]; Sprague-Dawley, po, per os, 10 mg/kg, plasma, read-out: Tmax): 1 h; AUC(0-t) ([1]; Sprague-Dawley, plasma, po, 10 mg/kg, per os): 6680 ng·h/mL; bioavailability ([1]; Sprague-Dawley, plasma, po, 10 mg/kg, per os 10 mg/kg): 98%; Cmax ([1]; Sprague-Dawley, plasma, po, 10 mg/kg, per os, 10 mg/kg, plasma, read-out: Cmax): 2560 ng/mL; CSF Cmax ([1]; per os, 10 mg/kg): 342.07 ng/mL; Brain Cmax ([1]; per os, 10 mg/kg): 1547.36 ng/mL; AUC(0-t) ([3]; Sprague-Dawley, in vivo, iv): 1360 ng·h/mL; clearance ([3]; Sprague-Dawley, in vivo, iv): 24.4 mL/min/kg; half-life ([3]; Sprague-Dawley, in vivo, iv): 9.15 h; Cmax ([3]; Sprague-Dawley, in vivo, iv, read-out: Cmax): 1420 ng/mL; Vd ([3]; Sprague-Dawley, in vivo, iv, read-out: Vss): 3.31 L/kg |
| O=C1NCCCC12CCCCN2 (single isomer, unassigned) [AY, 1,8-diazaspiro[5.5]undecan-7-one] | 107% | 104% | < 1 nM |  | 114% | < 1 nM |  | 97% | + (<100%=+) | + (<100%=+) | % F ([1]; per os 10 mg/kg): 79%; CSF Cmax ([1]; per os, 10 mg/kg): 701.8 ng/mL; Brain Cmax ([1]; per os, 10 mg/kg): 799.5 ng/mL; AUC(0-last) ([1]; per os, 10 mg/kg, plasma): 6528.55 ng·h/mL; Cmax ([1]; per os, 10 mg/kg, plasma): 3038.07 ng/mL; Tmax ([1]; per os, 10 mg/kg, plasma): 1 h; AUClast [3]: 1658.09 ng·h/mL; Cl [3]: 20.15 mL/min/kg; Cmax [3]: 1552.63 ng/mL; T1/2 [3]: 9.65 h; Vss [3]: 3.88 L/kg |
| O=C1NCC=CCC12CCCN2Cc1ccc(F)cc1 (single isomer, unassigned) [GJ-1, 1-(4-fluorobenzyl)-1,7-diazaspiro[4.6]undec-9-en-6-one] | 100% | 105% | < 1 nM | < 100% | 11% | < 1 nM | < 100% | 83% |  |  |  |
| O=C1NCC=CCC12CCCN2Cc1ccc(F)cc1 (single isomer, unassigned) [GJ-2, 1-(4-fluorobenzyl)-1,7-diazaspiro[4.6]undec-9-en-6-one] | 99% | 95% | < 1 nM |  | 3% | < 1 nM |  | 95% | + (<100%=+) | + (<100%=+) |  |
| O=C1N(Cc2ccc(F)cc2)CC=CCC12CCCN2 (single isomer, unassigned) [GK-2, 7-(4-fluorobenzyl)-1,7-diazaspiro[4.6]undec-9-en-6-one] | 97% | 92% | < 1 nM |  | 46% |  |  | 94% | + (<100%=+) | − (−=0) | NMDAR2A B: log EC50 (NMDAR2A): − |
| O=C1NCC=CCC12CCCN2Cc1ccccc1 (single isomer, unassigned) [GP-1, 1-benzyl-1,7-diazaspiro[4.6]undec-9-en-6-one] | 96% | 98% | < 1 nM | > 100% | 2% | < 1 nM | < 100% | 80% |  |  |  |
| O=C1N(Cc2ccccc2)CC=CCC12CCCN2 (single isomer, unassigned) [GS-1, 7-benzyl-1,7-diazaspiro[4.6]undec-9-en-6-one] | 95% | 97% | < 1 nM | < 100% | 0% | < 1 nM | < 100% | 99% |  |  |  |
| O=C1N(Cc2ccccc2)CC=CCC12CCCN2 (single isomer, unassigned) [GS-2, 7-benzyl-1,7-diazaspiro[4.6]undec-9-en-6-one] | 99% | 98% | < 1 nM |  | 0% | ≥ 1 nM |  | 90% | + (<100%=+) | + (<100%=+) |  |

The next lines start with results.

| Plasma (Rat): percent of compound remaining (Plasma stability (Rat)) | Plasma (Human): percent of compound remaining (Plasma stability (Human)) | EC50 (NMDAR2B) | Emax (NMDAR2B) | Microsomal (Rat): percent of compound remaining [2] | EC50 (NMDAR2A) | Emax (NMDAR2A) | Microsomal (Human): percent of compound remaining [4] | NMDAR2B A: % maximal [3H]MK-801 binding relative to 1 mM glycine (NMDAR2B) | NMDAR2A A: % maximal [3H]MK-801 binding relative to 1 mM glycine (NMDAR2A) | Structure (SMILES) | also measured |
| --- | --- | --- | --- | --- | --- | --- | --- | --- | --- | --- | --- |
| 102% | 103% and 96% | < 1 nM | < 100% | 100% | < 1 nM | < 100% | 104% |  |  | CC(C)C(=O)N1CCCC12CC=CCNC2=O (single isomer, unassigned) [GH-1, 1-isobutyryl-1,7-diazaspiro[4.6]undec-9-en-6-one] |  |
| 102% | 96% | < 1 nM | < 100% | 69% | < 1 nM | < 100% | 96% |  |  | CC(C)CN1CCCC12CC=CCNC2=O (single isomer, unassigned) [GI-1, 1-isobutyl-1,7-diazaspiro[4.6]undec-9-en-6-one] |  |
| 85% | 96% | < 1 nM |  | 7% | < 1 nM |  | 89% | + (<100%=+) | ++ (>100%=++) | O=C1NCC=CCC12CCCN2Cc1ccccc1 (single isomer, unassigned) [GP-2, 1-benzyl-1,7-diazaspiro[4.6]undec-9-en-6-one] |  |
| 98% | 98% | ≥ 1 nM | > 100% | 87% | < 1 nM | < 100% | 88% |  |  | NC(=O)CN1CCCC12CC=CCNC2=O (single isomer, unassigned) [GQ-1, 2-(6-oxo-1,7-diazaspiro[4.6]undec-9-en-1-yl)acetamide] |  |
